Assay results from patent publication US20200264182A1, “METHOD FOR DETECTING PROSTATE CANCER” (J-OIL MILLS, INC., priority 2017, published 2020).

Assay: FAC binding constant
Conditions: at 25° C.
Experimental: Details of the FAC method are described in Patent Document 2 filed by some of the present applicants, for example.
Binding constants (at 25° C.) of PhoSL, SRL, NSL and LSL belonging to the fucose α1→6 specific lectin for various sugar chains are shown in Tables 2 to 5.

[1] = sugar chain having fucose other than α1→6 fucose

SRL: fucose α1→6 specific lectin that can be extracted from Stropharia rugosoannulata, SEQ ID No. 2
<1000 M⁻¹: Binding constant for sugar chain No. 728 (Table 3: sugar chain having fucose other than α1→6 fucose) | Binding constant for sugar chain No. 419 [1] | Binding constant for sugar chain No. 420 [1] | Binding constant for sugar chain No. 718 [1] | Binding constant for sugar chain No. 719 [1] | Binding constant for sugar chain No. 720 [1] | Binding constant for sugar chain No. 721 [1] | Binding constant for sugar chain No. 722 [1] | Binding constant for sugar chain No. 723 [1] | Binding constant for sugar chain No. 726 [1] | Binding constant for sugar chain No. 727 [1] | Binding constant for sugar chain No. 729 [1] | Binding constant for sugar chain No. 730 [1] | Binding constant for sugar chain No. 731 [1] | Binding constant for sugar chain No. 739 [1] | Binding constant for sugar chain No. 909 [1] | Binding constant for sugar chain No. 910 [1] | Binding constant for sugar chain No. 931 [1] | Binding constant for sugar chain No. 932 [1] | Binding constant for sugar chain No. 933 [1] | Binding constant for sugar chain No. 001 (sugar chain having no fucose) | Binding constant for sugar chain No. 002 (sugar chain having no fucose) | Binding constant for sugar chain No. 003 (sugar chain having no fucose) | Binding constant for sugar chain No. 004 (sugar chain having no fucose) | Binding constant for sugar chain No. 005 (sugar chain having no fucose) | Binding constant for sugar chain No. 006 (sugar chain having no fucose) | Binding constant for sugar chain No. 007 (sugar chain having no fucose) | Binding constant for sugar chain No. 008 (sugar chain having no fucose) | Binding constant for sugar chain No. 009 (sugar chain having no fucose) | Binding constant for sugar chain No. 010 (sugar chain having no fucose) | Binding constant for sugar chain No. 011 (sugar chain having no fucose) | Binding constant for sugar chain No. 012 (sugar chain having no fucose) | Binding constant for sugar chain No. 013 (sugar chain having no fucose) | Binding constant for sugar chain No. 014 (sugar chain having no fucose) | Binding constant for sugar chain No. 101 (sugar chain having no fucose) | Binding constant for sugar chain No. 103 (sugar chain having no fucose) | Binding constant for sugar chain No. 104 (sugar chain having no fucose) | Binding constant for sugar chain No. 105 (sugar chain having no fucose) | Binding constant for sugar chain No. 107 (sugar chain having no fucose) | Binding constant for sugar chain No. 108 (sugar chain having no fucose) | Binding constant for sugar chain No. 301 (sugar chain having no fucose) | Binding constant for sugar chain No. 304 (sugar chain having no fucose) | Binding constant for sugar chain No. 305 (sugar chain having no fucose) | Binding constant for sugar chain No. 307 (sugar chain having no fucose) | Binding constant for sugar chain No. 308 (sugar chain having no fucose) | Binding constant for sugar chain No. 313 (sugar chain having no fucose) | Binding constant for sugar chain No. 314 (sugar chain having no fucose) | Binding constant for sugar chain No. 323 (sugar chain having no fucose) | Binding constant for sugar chain No. 501 (sugar chain having no fucose) | Binding constant for sugar chain No. 502 (sugar chain having no fucose) | Binding constant for sugar chain No. 503 (sugar chain having no fucose) | Binding constant for sugar chain No. 504 (sugar chain having no fucose)
